In patent US6414158B1, “1,3,4-oxadiazine derivatives and their use as pesticides” (Bayer AKtiengesellschaft, priority 1996, dated 2002) one finds melting point data, which are given here for 1 compound.

For the compound `CCN1C(=O)OCC(=O)N1Cc1ccc(Cl)nc1` [Example I-16, 4-(2-chloro-5-pyridylmethyl)-3-ethyl-1,3,4-oxadiazine-2,5-dione], the melting point was in the range of 125 to 128 °C.

As usually defined, the melting point is the temperature, or range, at which the solid turns liquid.
